Test results as given in patent US5464825A, “Raising glutathione equivalent levels using N-acyl glutathione monoesters” (Cornell Research Foundation, Inc., priority 1994, dated 1995).
Read-outs that look alike come from different tables or passages of the source. Values belong to the molecule of their own block, whether it stands above or below them. *1 amine or outer side, *2 acyl side, *3 side chain or, on linkers, in order; H or OH if unused. Where a SMILES comes first, the peptide text is derived from it. [ ]: non-standard residue; d: D form. γGlu = O=C(O)[C@H](CCC(=O)[*:2])N[*:1]

[1] = kidney, 1 hour after 10 mmol/kg i.p., fasted BSO treated mice
[2] = kidney, 2.5 hours after 10 mmol/kg i.p., fasted BSO treated mice
[3] = liver, 1 hour after 10 mmol/kg i.p., fasted BSO treated mice
[4] = liver, 2.5 hours after 10 mmol/kg i.p., fasted BSO treated mice
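Further: mice fasted 18 h, given 10 mM BSO in drinking water plus BSO 2 mmol/kg 13 h and 3 h before dosing, controls got 0.9% NaCl, mean ± SD.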

Protocol: The N-acetyl GSH monoethyl ester was used. A solution of N-acetyl GSH monoester was prepared in aseptic water. Mice weighing 18 to 25 grams, obtained from Taconic Farms, Inc., (TAC:(SWFBR)), were fasted for 18 hours before injection with NAGEE. At the time of fasting, the drinking water contains 10 mM L-buthionine-SR-sulfoximine (BSO). All mice are injected with L-buthionine-SR-sulfoximine (BSO) (2 millimoles per kilogram; intraperitoneally) 13 hours before NAGEE injection. The mice are injected again with L-buthionine-SR-sulfoxminie (BSO) (2 millimoles per kg; subcutaneously) 3 hours prior to NAGEE injection. NAGEE or GSH are administered intraperitoneally (10 mmol/kg; the pH of the solution is adjusted to about 7 with sodium hydroxide). The GSH solution also contains ethanol at 10 mmol/kg. Control mice are given equivalent volumes of 0.9% sodium chloride. The mice were then injected intraperitoneally with the N-acetyl GSH monoethyl ester in a dose of 10 millimoles per kilogram. […] Using groups of 4 or 5 mice each, values are given as means plus or minus S.D.

Compound: N[C@@H](CCC(=O)N[C@@H](CS)C(=O)NCC(=O)O)C(=O)O [GSH, L-γ-glutamyl-L-cysteinylglycine, reference compound]
effect on glutathione levels in the kidney as compared to the controls (in words) (kidney, 10 mmol/kg i.p., fasted BSO treated mice): only a slight effect
GSH level, kidney [1]: 1.9 µmol/g
GSH level, kidney [2]: 1.01 µmol/g
GSH level, liver [3]: 1.38 µmol/g
GSH level, liver [4]: 0.45 µmol/g

levels of GSH monoethyl ester, NAGEE and NAG found (in words) (kidney, 10 mmol/kg i.p.): substantial levels
GEE level, kidney [1]: 0.92 µmol/g
NAG level, kidney [1]: 1.43 µmol/g
NAGEE level, kidney [1]: 5.54 µmol/g
GEE level, kidney [2]: 0.52 µmol/g
NAG level, kidney [2]: 0.79 µmol/g
NAGEE level, kidney [2]: 2.10 µmol/g
GSH mono-ethyl ester found in the liver (in words) (liver, 10 mmol/kg i.p.): a little
GEE level, liver [3]: 0.18 µmol/g
NAG level, liver [3]: 4.80 µmol/g
NAGEE level, liver [3]: 8.85 µmol/g
GEE level, liver [4]: 0.15 µmol/g
NAG level, liver [4]: 3.38 µmol/g
NAGEE level, liver [4]: 2.93 µmol/g
liver levels of N-acetyl GSH (in words) (liver, at 1 and 2.5 hours, 10 mmol/kg i.p.): increased dramatically
Compound: CCOC(=O)CNC(=O)[C@H](CS)NC(=O)CC[C@H](NC(C)=O)C(=O)O [NAGEE, N-acetyl glutathione monoethyl ester] (Ac-[γGlu]-Cys-Gly-OEt)
GSH equivalents total, kidney [1]: 10.51 µmol/g
GSH level, kidney [1]: 1.6 µmol/g
GSH equivalents total, kidney [2]: 5.67 µmol/g
GSH level, kidney [2]: 2.3 µmol/g
GSH level of the kidney (in words, FIGS. 1 and 2) (kidney, 2.5 hours after administration, 10 mmol/kg i.p.): increased substantially
GSH level of the kidney (in words) (kidney, at 5 hours, 10 mmol/kg i.p.): declined
GSH equivalents total, liver [3]: 14.28 µmol/g
GSH level, liver [3]: 0.45 µmol/g
GSH equivalent total, liver [4]: 7.17 µmol/g
GSH level, liver [4]: 0.71 µmol/g
liver levels of GSH (in words) (liver, at 2.5 hours, 10 mmol/kg i.p.): increased moderately
